Experimental data as given in patent publication US20070135399A1, “Heteroaromatic sulphonamide prodrugs” (priority 2005, published 2007).
Like-named read-outs stand apart in the source and are kept apart here.

How the values were obtained:
human carboanhydrase II = human carboanhydrase II (Homo sapiens, UniProt P00918); test: Carboanhydrase inhibition, photometric, nitrophenyl acetate conversion (CA II); assay type: biochemical
From the text: (§1) a) Carboanhydrase Inhibition
(§2) Photometric determination of the inhibition of human carboanhydrase I or II by sulphonamides or sulphamates on microtitre plates with the aid of the enzymatic conversion of nitrophenyl acetate with a colour change from colourless to yellow.

human carboanhydrase I = human carboanhydrase I (Homo sapiens, UniProt P00915); test: Carboanhydrase inhibition, photometric, nitrophenyl acetate conversion (CA I); assay type: biochemical
From the text: as §1, §2

[1] = Blood-plasma concentration ratio in heparinized rat blood
Experimental: b) Blood-plasma concentration ratio—test principle and experimental description:
The blood-plasma ratio is calculated from the measured concentration and the theoretical concentration.

[2] = human carboanhydrase II, read-out: CA II IC50
[3] = human carboanhydrase I, read-out: CA I IC50
[4] = freshly obtained heparinized whole blood

Chain of human carboanhydrase I (P00915 whole entry): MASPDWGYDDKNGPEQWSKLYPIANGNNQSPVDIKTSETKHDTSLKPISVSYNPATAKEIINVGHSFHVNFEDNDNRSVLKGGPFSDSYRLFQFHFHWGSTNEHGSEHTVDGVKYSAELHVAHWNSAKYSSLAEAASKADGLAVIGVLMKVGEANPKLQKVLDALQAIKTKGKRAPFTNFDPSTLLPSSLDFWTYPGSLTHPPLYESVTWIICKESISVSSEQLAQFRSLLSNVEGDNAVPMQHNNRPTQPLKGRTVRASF

SMILES | IC50 (human carboanhydrase II; [2]) | IC50 (human carboanhydrase I; [3]) | Blood/plasma ratio | blood plasma ratio [1, 4] | blood plasma ratio [1] | IC50 (human carboanhydrase II) | IC50 (human carboanhydrase I)
C[C@]12CC[C@@H]3c4ccc(O)cc4CC[C@H]3[C@@H]1CC[C@@H]2OC(=O)c1ccc(S(N)(=O)=O)nc1 [Compound 1, 3-Hydroxyoestra-1,3,5(10)-trien-17β-yl 6′-sulphamoylnicotinate] | 31 nM | 2900 nM |  |  |  |  | 
C[C@]12CC[C@@H]3c4ccc(OS(N)(=O)=O)cc4CC[C@H]3[C@@H]1CC[C@@H]2O [Oestradiol 3-sulphamate, reference compound] | 34 nM | 157 ± 10.6 nM | About 50 |  |  |  | 
C[C@]12CC[C@@H]3c4ccc(O)cc4CC[C@H]3[C@@H]1CC[C@@H]2OC(=O)c1cc(S(N)(=O)=O)sc1Br [Compound 4, 3-Hydroxyoestra-1,3,5(10)-trien-17β-yl 2′-bromo-5′-sulphamoylthiophene-3′-carboxylate] | 47 nM | 3300 nM |  | 9.5 |  |  | 
CCc1sc(S(N)(=O)=O)cc1C(=O)O[C@H]1CC[C@H]2[C@@H]3CCc4cc(O)ccc4[C@H]3CC[C@]12C [Compound 3, 3-Hydroxyoestra-1,3,5(10)-trien-17β-yl 2′-ethyl-5′-sulphamoylthiophene-3′-carboxylate] | 42 nM | 3400 nM |  | 1.8 |  |  | 
C[C@]12CC[C@H]3[C@@H](CCC4=CC(=O)CC[C@@]43C)[C@@H]1CC[C@@H]2OC(=O)c1cncc(S(N)(=O)=O)c1 [Compound 6, 3-Oxoandrost-4-en-17β-yl 5′-sulphamoylnicotinate] |  |  |  |  | 5.7 | 250 nM | 2900 nM
C[C@]12CC[C@H]3[C@@H](CCC4=CC(=O)CC[C@@]43C)[C@@H]1CC[C@@H]2OC(=O)c1ccc(S(N)(=O)=O)nc1 [Compound 5, 3-Oxoandrost-4-en-17β-yl 6′-sulphamoylnicotinate] |  |  |  |  | 3.6 | 41 nM | 3200 nM
C[C@]12CC[C@@H]3c4ccc(O)cc4CC[C@H]3[C@@H]1CC[C@@H]2OC(=O)c1cncc(S(N)(=O)=O)c1 [Compound 2, 3-Hydroxyoestra-1,3,5(10)-trien-17β-yl 5′-sulphamoylnicotinate] | 160 nM | 2100 nM |  | 2 |  |  | 
